Test results taken from US20220305051A1 (priority 2019, published 2022).

What was measured:
[1] = tested on: oral NR activity; parameters: species or system mice; conditions: mouse, in vivo
[2] = mouse, in vivo
[3] = tested on: oral NR activity; parameters: species or system mice; conditions: mouse, in vivo; remark: listed apart in the source
[4] = tested on: tongue and lung microbiome; parameters: species or system mice; conditions: mouse, in vivo
[5] = parameters: species or system mice; conditions: mouse, in vivo
[6] = tested on: C57bl/6 mice exposed to Cl2, Br2 or COCl2; conditions: mouse, in vivo
[7] = tested on: C57bl/6 mice exposed to Br2; conditions: mouse, in vivo
[8] = tested on: C57bl/6 mice exposed to Br2; conditions: mouse, in vivo; remark: listed apart in the source
[9] = tested on: P. Aeruginosa; parameters: species or system mice; conditions: mouse, in vivo

## bromine [Br2]
[1]
  Bacterial number (CFU): not different
  NR activity normalized per bacterial number: significantly inhibited

## O=[N+]([O-])O [nitrate]
[2]
  Plasma nitrite and cGMP: will temporally increase plasma nitrite and cGMP
  Plasma nitrite levels: increase

## [H]/N=C(\N/C(=N/[H])NCCCCCCNC(=N)NC(=N)Nc1ccc(Cl)cc1)Nc1ccc(Cl)cc1 [chlorhexidine]
[3]
  Inhibition of NR activity: ~70%
[4]
  Decrease in abundance of 7 bacteria on the tongue: > 50%
  Decrease of the one altered bacterial species in the lung microbiome: ~30%
[5]
  Decrease of plasma nitrite: 50%
[6]
  Increase in severity of Br2 and COCl2 lung injury: 1.5-2.5 fold
  Increase in severity of Cl2 lung injury: close to significant effects
  Lung injury, chlorhexidine alone: no effect on lung injury

## O=NO [nitrite, sodium nitrite]
[7]
  Survival over 10 days (Kaplan Meier): improved survival early
[8]
  Decrease of BAL neutrophil: 50%
[9]
  Protection against ALI and P. aeruginosa infection: protects against ALI and P. aeruginosa infection
  Susceptibility to P. aeruginosa infection (bacterial burden in lung homogenates): decreases susceptibility to P. aeruginosa infection

B1: hemopexin: a heme-scavenger; scavenges free heme (protein, UniProt P02790 24-462, looked up)
Hemopexin: TPLPPTSAHGNVAEGETKPDPDVTERCSDGWSFDATTLDDNGTMLFFKGEFVWKSHKWDRELISERWKNFPSPVDAAFRQGHNSVFLIKGDKVWVYPPEKKEKGYPKLLQDEFPGIPSPLDAAVECHRGECQAEGVLFFQGDREWFWDLATGTMKERSWPAVGNCSSALRWLGRYYCFQGNQFLRFDPVRGEVPPRYPRDVRDYFMPCPGRGHGHRNGTGHGNSTHHGPEYMRCSPHLVLSALTSDNHGATYAFSGTHYWRLDTSRDGWHSWPIAHQWPQGPSAVDAAFSWEEKLYLVQGTQVYVFLTKGGYTLVSGYPKRLEKEVGTPHGIILDSVDAAFICPGSSRLHIMAGRRLWWLDLKSGAQATWTELPWPHEKVDGALCMEKSLGPNSCSANGPGLYLIHGPNLYCYSDVEKLNAAKALPQPQNVTSLLGCTH
[7]
  Survival over 10 days (Kaplan Meier): improved survival
[9]
  Protection against ALI and P. aeruginosa infection: protects against ALI and P. aeruginosa infection
